Among the data in BindingDB's records for doi:10.1016/j.ejmech.2014.09.084 (University of Florence, 2014) are IC50 values, retold here.

Data set [1] in a line: Modulatory activity at P-gp assessed as doxorubicin IC50 in human K562/DOX cells at 1 uM after 72 hrs by MTT assay (Rvb doxorubicin alone IC50 = 2.00 +/- 0.24 uM). A general note: Tetrazolium assays rely on reduction of a dye to a coloured formazan, in cell work by metabolically active cells.
Data set [2] in a line: Modulatory activity at P-gp assessed as doxorubicin IC50 in human K562/DOX cells at 0.1 uM after 72 hrs by MTT assay (Rvb doxorubicin alone IC50 = 2.00 +/- 0.24 uM).
Data set [3] is described as follows: Modulatory activity at P-gp assessed as doxorubicin IC50 in human K562/DOX cells at 3 uM after 72 hrs by MTT assay (Rvb doxorubicin alone IC50 = 2.00 +/- 0.24 uM).
A short description of data set [4]: Modulatory activity at P-gp assessed as doxorubicin IC50 in human K562 cells at 0.1 uM after 72 hrs by MTT assay (Rvb doxorubicin alone IC50 = 0.023 +/- 0.004 uM).
The nature of data set [5]: Modulatory activity at P-gp assessed as doxorubicin IC50 in human K562 cells at 1 uM after 72 hrs by MTT assay (Rvb doxorubicin alone IC50 = 0.023 +/- 0.004 uM).
Data set [6] in a line: Modulatory activity at P-gp assessed as doxorubicin IC50 in human K562 cells at 3 uM after 72 hrs by MTT assay (Rvb doxorubicin alone IC50 = 0.023 +/- 0.004 uM).

pIC50: −log10 of the molar value.

Turning to `COc1cc(/C=C/C(=O)OCCCCN(C)CCCCOC(=O)c2c3ccccc3cc3ccccc23)cc(OC)c1OC`, the pIC50 (as a rule, the IC50 on a negative log10 scale, so that one unit is a factor of ten) was 6.64 in data set [1]; 6.08 in data set [2]; 7.20 in data set [3]; 7.66 in data set [4]; 7.39 in data set [5]; 7.72 in data set [6].
As to `COc1cc(/C=C/C(=O)OCCCCCN(C)CCCOC(=O)c2c3ccccc3cc3ccccc23)cc(OC)c1OC`, the pIC50 is 7.22 in data set [1]; 6.52 in data set [2]; 7.46 in data set [3]; 7.52 in data set [4]; 7.74 in data set [6].
For the compound `COc1cc(/C=C/C(=O)OCCCN(C)CCCCCOC(=O)c2c3ccccc3cc3ccccc23)cc(OC)c1OC`, the pIC50 in data set [1] was 6.49; in data set [2], 6.21; in data set [3] it was 6.77; in data set [4], 7.96; in data set [5], 7.92; in data set [6], 7.29.
